In experiment [1] the target is Ba/F3-EGFR wild-type cell line (Homo sapiens, UniProt P00533). Description: Ba/F3-EGFR wild-type cell proliferation assay (CellTiter Glo, 72 hours). Format: cell-based. The settings on record: Table 2, read-out: EGFR WT IC50. The protocol:
Cell line: Ba/F3 cells with EGFR Δ19del/T790M/C797S mutation gene stably overexpressed named Ba/F3-Δ119del/T90M/C797S, and A431 and Ba/F3-EGFR wild-type cell line.
a) Centrifuge the growth cells in logarithmic phase at 1000 rpm for 5 minutes, resuspend the cells in culture medium, and then count the cells;
b) Inoculate the cells into a 96-well cell culture plate with a density of 2000 cells/well;
b) Incubate cells in an incubator for another 72 hours.
a) Take out the 96-well cell culture plate and add 50 μl CTG reagent (CellTiter Glo kit, promega, Cat #G7573);
b) Shake the plate for 2 minutes and let cool at room temperature for 10 minutes;
c) Read luminous signal value with PerkinElmer reader,
Analysis of Experimental Data
The data were analyzed by GraphPad Prism 6.0 software to obtain the fitting curve of compound activity.
Y=Min+(Max−Min)/(1+10^((Log IC50−X)*slope));
X: Logarithm of compound concentration; Y: luminous signal.
In general terms: Cellular ATP, detected with luciferase, serves as a proxy for viable cell number.

The target in a further experiment is IGF1R (Homo sapiens, UniProt P08069). The experiment is described as follows: IGF1R kinase test (mobility variation analysis, Caliper EZ Reader). In kind it is biochemical. The settings on record: kinase enzymatic activity, Table 1; read-out: EGFR IGF1R IC50. The method, boiled down:
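Kinase preincubated 10 min at room temperature with compound (10-point 3-fold series, top 3000 nM), then ATP and substrate added and reacted at room temperature. Substrate conversion read by mobility-shift (Caliper EZ Reader); % inhibition vs no-enzyme and no-compound controls fitted to variable-slope curve for IC50.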

The target of experiment [2] is Ba/F3 cells with EGFR Δ19del/T790M/C797S mutation gene stably overexpressed (Homo sapiens, UniProt P00533, T790M/C797S, cells depend on it, form not given). Description: Ba/F3-Δ19del/T790M/C797S cell proliferation assay (CellTiter Glo, 72 hours). In kind it is cell-based. The method, boiled down:
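Ba/F3 cells stably overexpressing wild-type EGFR or EGFR Δ19del/T790M/C797S were seeded at 2000 cells/well and incubated 72 h with compound. Viability was read by CellTiter-Glo luminescence, and IC50 came from a four-parameter logistic fit of signal against log concentration.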

Another experiment has as its system A431. Description: A431 cell proliferation assay (CellTiter Glo, 72 hours). The conditions noted are these: Homo sapiens, A-431, 72 h. Format: cell-based. The method, boiled down: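 A431 cells (2000/well) exposed 72 h to compound at 1000 nM down to 0.2 nM in 3-fold steps, 0.1% DMSO (0.5% for some series). Viability by CellTiter-Glo luminescence; IC50 by four-parameter nonlinear regression.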

A further experiment has as its target EGFR WT (Homo sapiens, UniProt P00533). Description: EGFR WT kinase test (mobility variation analysis, Caliper EZ Reader). Format: biochemical. The settings on record: kinase enzymatic activity, Table 1. The method, boiled down:
(§1)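 Kinase pre-incubated with compound 10 minutes at room temperature, then ATP plus peptide substrate added; substrate conversion read by mobility shift after stop solution. Percent inhibition normalized to no-compound and no-enzyme controls; IC50 from variable-slope log(inhibitor) fit.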

The target in another experiment is EGFRΔ19del/T790M/C797S (Homo sapiens, UniProt P00533, T790M/C797S, form not given). The experiment is described as follows: EGFR Δ19del/T790M/C797S kinase test (mobility variation analysis, Caliper EZ Reader). Format: biochemical. The settings on record: kinase enzymatic activity, Table 1. Put shortly: as §1
The mark [3] stands for this setting: Table 2, read-out: EGFR Δ19del/T790M/C797S IC50.
The mark [4] stands for this setting: cell proliferation, A431, 72 hours, Table 2, read-out: A431 IC50.

Here are results for 16 compounds from US20220402948A1, “EGFR INHIBITOR, COMPOSITION AND PREPARATION METHOD THEREFOR” (BETTA PHARMACEUTICALS CO., LTD., priority 2019, published 2022).

Read-outs that look alike come from different tables or passages of the source.

EGFR WT, sequence (P00533 25-1210): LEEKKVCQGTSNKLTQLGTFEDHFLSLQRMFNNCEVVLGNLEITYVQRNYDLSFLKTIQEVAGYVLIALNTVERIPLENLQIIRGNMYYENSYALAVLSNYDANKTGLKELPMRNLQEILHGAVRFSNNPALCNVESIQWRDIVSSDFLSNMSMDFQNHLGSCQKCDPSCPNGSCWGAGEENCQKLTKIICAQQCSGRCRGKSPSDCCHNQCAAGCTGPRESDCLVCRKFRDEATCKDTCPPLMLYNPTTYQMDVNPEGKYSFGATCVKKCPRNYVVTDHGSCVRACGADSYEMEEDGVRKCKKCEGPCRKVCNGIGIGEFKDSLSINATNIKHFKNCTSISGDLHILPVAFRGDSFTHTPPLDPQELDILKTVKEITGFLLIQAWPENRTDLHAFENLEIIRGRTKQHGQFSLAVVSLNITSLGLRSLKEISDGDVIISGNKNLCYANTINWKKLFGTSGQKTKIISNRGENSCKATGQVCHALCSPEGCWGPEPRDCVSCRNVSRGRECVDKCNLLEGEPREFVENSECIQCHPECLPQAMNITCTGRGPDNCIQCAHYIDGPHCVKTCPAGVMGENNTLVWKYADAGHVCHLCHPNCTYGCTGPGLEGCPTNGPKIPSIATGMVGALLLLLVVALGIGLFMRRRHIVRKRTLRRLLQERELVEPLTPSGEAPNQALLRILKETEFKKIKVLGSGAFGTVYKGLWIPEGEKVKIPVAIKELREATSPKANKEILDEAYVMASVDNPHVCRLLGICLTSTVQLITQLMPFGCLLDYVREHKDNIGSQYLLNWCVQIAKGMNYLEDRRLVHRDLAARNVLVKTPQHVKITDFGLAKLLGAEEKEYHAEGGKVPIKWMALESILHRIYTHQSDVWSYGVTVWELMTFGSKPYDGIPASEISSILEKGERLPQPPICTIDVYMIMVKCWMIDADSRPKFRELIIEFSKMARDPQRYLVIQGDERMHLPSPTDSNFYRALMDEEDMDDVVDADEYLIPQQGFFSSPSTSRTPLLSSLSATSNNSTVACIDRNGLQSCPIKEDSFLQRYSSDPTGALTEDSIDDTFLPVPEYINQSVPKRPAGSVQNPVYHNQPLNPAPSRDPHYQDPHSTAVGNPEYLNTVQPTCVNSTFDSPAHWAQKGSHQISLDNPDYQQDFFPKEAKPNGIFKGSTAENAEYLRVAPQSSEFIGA
IGF1R, sequence (P08069 31-1367, species assumed): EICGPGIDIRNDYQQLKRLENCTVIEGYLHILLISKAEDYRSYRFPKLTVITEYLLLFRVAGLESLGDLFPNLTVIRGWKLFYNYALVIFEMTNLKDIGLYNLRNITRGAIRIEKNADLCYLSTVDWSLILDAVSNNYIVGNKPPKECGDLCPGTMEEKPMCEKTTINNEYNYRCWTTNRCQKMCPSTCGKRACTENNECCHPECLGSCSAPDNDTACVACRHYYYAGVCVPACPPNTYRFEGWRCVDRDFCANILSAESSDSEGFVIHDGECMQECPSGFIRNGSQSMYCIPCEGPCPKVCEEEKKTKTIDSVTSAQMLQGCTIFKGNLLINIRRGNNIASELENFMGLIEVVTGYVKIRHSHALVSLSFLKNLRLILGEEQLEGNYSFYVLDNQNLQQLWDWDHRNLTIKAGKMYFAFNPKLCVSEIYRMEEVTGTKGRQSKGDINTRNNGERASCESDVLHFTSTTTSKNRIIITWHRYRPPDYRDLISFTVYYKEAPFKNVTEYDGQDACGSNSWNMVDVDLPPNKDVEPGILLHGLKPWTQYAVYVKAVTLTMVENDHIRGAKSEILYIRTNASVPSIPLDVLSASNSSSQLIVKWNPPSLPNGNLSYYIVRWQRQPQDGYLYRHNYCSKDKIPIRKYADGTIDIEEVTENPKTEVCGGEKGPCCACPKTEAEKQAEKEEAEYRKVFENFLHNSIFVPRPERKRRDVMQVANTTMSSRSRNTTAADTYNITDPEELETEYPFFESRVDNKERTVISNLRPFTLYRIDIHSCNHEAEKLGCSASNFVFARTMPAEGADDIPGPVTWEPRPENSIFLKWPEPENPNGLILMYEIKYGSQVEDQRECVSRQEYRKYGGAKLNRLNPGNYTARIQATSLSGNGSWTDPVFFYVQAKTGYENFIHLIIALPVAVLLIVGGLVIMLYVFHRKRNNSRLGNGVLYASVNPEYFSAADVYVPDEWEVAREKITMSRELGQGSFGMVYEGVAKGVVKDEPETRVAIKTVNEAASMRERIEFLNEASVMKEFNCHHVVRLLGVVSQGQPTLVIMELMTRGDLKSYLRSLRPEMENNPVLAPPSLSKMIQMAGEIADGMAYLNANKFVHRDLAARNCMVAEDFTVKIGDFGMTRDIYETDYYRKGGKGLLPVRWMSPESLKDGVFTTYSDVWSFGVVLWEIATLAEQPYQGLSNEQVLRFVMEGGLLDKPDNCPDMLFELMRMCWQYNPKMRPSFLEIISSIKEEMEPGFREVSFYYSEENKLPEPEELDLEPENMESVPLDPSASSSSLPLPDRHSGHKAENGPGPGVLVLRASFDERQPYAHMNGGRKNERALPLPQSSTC
Ba/F3-EGFR wild-type cell line, sequence (P00533 whole entry, stated change not applied): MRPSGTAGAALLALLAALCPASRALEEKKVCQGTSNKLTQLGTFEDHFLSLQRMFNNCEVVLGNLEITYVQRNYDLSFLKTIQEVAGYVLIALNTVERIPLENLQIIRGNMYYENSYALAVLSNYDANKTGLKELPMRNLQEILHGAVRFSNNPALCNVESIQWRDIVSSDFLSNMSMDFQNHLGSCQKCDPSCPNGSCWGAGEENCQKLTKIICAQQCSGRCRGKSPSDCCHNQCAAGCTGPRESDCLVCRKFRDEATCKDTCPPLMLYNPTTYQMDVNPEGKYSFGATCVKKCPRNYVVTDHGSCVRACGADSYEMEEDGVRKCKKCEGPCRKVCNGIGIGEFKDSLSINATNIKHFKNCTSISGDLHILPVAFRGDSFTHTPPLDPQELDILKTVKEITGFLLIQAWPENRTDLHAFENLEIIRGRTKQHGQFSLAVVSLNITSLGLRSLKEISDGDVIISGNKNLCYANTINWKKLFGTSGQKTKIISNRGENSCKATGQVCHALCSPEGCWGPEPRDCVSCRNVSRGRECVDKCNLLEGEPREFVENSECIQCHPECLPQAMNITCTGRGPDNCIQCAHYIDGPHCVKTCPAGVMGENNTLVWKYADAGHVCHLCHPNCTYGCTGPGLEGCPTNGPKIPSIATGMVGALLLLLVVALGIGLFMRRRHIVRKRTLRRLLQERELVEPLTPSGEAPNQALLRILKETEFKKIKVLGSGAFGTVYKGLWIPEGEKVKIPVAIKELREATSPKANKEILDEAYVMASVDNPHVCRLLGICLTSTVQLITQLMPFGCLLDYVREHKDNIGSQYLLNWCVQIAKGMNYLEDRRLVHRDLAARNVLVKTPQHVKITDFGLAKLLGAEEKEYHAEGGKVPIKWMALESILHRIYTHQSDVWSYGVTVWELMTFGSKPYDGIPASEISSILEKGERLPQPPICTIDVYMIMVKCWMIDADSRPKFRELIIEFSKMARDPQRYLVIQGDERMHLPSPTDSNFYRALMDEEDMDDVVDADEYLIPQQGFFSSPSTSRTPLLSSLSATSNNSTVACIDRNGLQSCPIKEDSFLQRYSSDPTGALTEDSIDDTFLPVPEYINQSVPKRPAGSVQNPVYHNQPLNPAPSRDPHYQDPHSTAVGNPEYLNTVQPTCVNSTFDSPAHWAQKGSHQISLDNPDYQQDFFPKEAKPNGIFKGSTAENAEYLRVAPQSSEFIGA
EGFRΔ19del/T790M/C797S, sequence (P00533 with tags, fused parts or gaps DEL746-750/T790M/C797S, form open): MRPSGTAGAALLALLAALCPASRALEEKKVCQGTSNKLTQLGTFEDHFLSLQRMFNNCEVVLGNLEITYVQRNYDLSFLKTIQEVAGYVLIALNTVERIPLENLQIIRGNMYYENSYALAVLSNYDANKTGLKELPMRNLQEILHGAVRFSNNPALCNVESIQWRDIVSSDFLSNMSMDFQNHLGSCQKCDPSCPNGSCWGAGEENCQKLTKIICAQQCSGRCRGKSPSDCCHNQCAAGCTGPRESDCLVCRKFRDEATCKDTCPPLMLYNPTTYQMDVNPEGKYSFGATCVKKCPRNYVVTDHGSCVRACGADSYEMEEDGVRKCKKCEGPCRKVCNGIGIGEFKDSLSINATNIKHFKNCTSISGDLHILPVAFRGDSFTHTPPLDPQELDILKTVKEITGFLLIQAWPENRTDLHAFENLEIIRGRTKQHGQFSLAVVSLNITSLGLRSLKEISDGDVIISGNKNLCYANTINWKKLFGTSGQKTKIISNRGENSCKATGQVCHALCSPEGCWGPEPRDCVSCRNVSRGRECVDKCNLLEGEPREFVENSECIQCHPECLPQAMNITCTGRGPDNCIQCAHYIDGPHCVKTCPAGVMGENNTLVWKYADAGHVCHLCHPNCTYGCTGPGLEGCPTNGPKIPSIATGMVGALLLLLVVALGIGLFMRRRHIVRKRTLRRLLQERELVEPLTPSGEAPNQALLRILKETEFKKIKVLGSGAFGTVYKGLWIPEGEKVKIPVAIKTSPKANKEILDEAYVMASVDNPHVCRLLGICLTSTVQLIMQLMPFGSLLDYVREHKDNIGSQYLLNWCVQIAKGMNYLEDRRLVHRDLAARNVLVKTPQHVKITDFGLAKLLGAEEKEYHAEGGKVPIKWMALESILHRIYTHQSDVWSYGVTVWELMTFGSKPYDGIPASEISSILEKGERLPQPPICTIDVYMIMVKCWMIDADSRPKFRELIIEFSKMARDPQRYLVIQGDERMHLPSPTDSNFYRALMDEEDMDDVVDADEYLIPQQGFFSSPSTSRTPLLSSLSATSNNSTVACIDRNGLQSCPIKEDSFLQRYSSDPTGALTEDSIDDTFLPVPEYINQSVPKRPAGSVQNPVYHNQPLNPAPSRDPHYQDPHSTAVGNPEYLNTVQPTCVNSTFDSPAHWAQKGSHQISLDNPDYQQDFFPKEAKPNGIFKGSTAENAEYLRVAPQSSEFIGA

For orientation: IC50 means the concentration at which inhibition is half-maximal. With `COc1cc(N2CCC(N3CCN(C)CC3)CC2)ccc1Nc1ncc(Cl)c(Nc2ccccc2P(C)(C)=O)n1` [Brigatinib, reference compound], the GI50 in experiment [1] is 22.5 nM; in experiment [2] (read-out: EGFR Δ19del/T790M/C797S IC50, Table 2), 64.9 nM. The IC50 is 23.4 nM at IGF1R and 309 nM in the experiment with A431 (read-out: A431 IC50(nM)).

In the case of `CCc1cc(Nc2ncc(Br)c(Nc3ccc(-c4ccccc4)cc3P(C)(C)=O)n2)c(OC)cc1N1CCC(N2CCN(C)CC2)CC1` [Compound 1], the values for the GI50 in experiment [1] and in experiment [2] (setting [3]) were 171 nM and 2.2 nM, respectively. Further, the IC50 on IGF1R was found to be 91.5 nM; at EGFR WT, 10.3 nM; with A431 (setting [4]) it was 935 nM; against EGFRΔ19del/T790M/C797S, 0.5 nM.

For the compound `CCc1cc(Nc2ncc(Br)c(Nc3ccc(-c4cnn(C)c4)cc3P(C)(C)=O)n2)c(OC)cc1N1CCC(N2CCN(C)CC2)CC1` [Compound 3, (2-((5-Bromo-2-((5-ethyl-2-methoxy-4-(4-(4-methylpiperazin-1-yl)piperidin-1-yl)phenyl)amino)pyrimidin-4-yl)amino)-5-(1-methyl-1hydro-pyrazol-4-yl)phenyl)dimethylphosphine oxide], the GI50 in experiment [1] turned out to be 107 nM; in experiment [2] (setting [3]), 4.5 nM. Further, the half-inhibitory concentration (IC50) at IGF1R came to 53.7 nM; with A431 (setting [4]), 602 nM; at EGFRΔ19del/T790M/C797S it was 0.3 nM.

Consider `CCc1cc(Nc2ncc(Br)c(Nc3ccc(-c4cnn(CC)c4)cc3P(C)(C)=O)n2)c(OC)cc1N1CCC(N2CCN(C)CC2)CC1` [Compound 4, (2-((5-Bromo-2-((5-ethyl-2-methoxy-4-(4-(4-methylpiperazin-1-yl)piperidin-1-yl)phenyl)amino)pyrimidin-4-yl)amino)-5-(1-ethyl-1hydro-pyrazol-4-yl)phenyl)dimethylphosphine oxide], for which the GI50 in experiment [1] was found to be 84.3 nM; in experiment [2] (setting [3]) it was 1.9 nM. Also, the IC50 came out at 71.9 nM at IGF1R, 465 nM in the experiment on A431 (setting [4]) and 0.6 nM against EGFRΔ19del/T790M/C797S.

`CCc1cc(Nc2ncc(Br)c(Nc3ccc(-c4cnn(C)n4)cc3P(C)(C)=O)n2)c(OC)cc1N1CCC(N2CCN(C)CC2)CC1` [Compound 8, (2-((5-Bromo-2-((5-ethyl-2-methoxy-4-(4(4-methylpiperazin-1-yl)piperidin-1-yl)phenyl)amino)pyrimidin-4-yl)amino)-5-(2-methyl-2H-1,2,3-triazol-4-yl)phenyl)dimethylphosphine oxide]: the figures for the GI50 in experiment [1] and in experiment [2] (setting [3]) were 181 nM and 3.3 nM, respectively. In addition, the half-inhibitory concentration (IC50) at IGF1R was found to be 67.9 nM; on EGFR WT, 10.8 nM; in the experiment with A431 (setting [4]) it was 773 nM; against EGFRΔ19del/T790M/C797S it was 0.4 nM.

Turning to `CCc1cc(Nc2ncc(Br)c(Nc3ccc(-c4ccco4)cc3P(C)(C)=O)n2)c(OC)cc1N1CCC(N2CCN(C)CC2)CC1` [Compound 16, (2-((5-Bromo-2-((5-ethyl-2-methoxy-4-(4-(4-methylpiperazin-1-yl)piperidin-1-yl)phenyl)amino)pyrimidin-4-yl)amino)-5-(furan-2-yl)phenyl)dimethylphosphine oxide], the figures for the GI50 in experiment [1] and in experiment [2] (setting [3]) were 141 nM and 5.4 nM, respectively. Besides, the values for the IC50 in the experiment with A431 (setting [4]) and against EGFRΔ19del/T790M/C797S were 564 nM and 0.4 nM, respectively.

With `CCc1cc(Nc2ncc(Cl)c(Nc3ccc(-c4ncc(OC)cn4)cc3P(C)(C)=O)n2)c(OC)cc1N1CCC(N2CCN(C)CC2)CC1` [Compound 20, (2-((5-Chloro-2-((5-ethyl-2-methoxy-4-(4-(4-methylpiperazin-1-yl)piperidin-1-yl)phenyl)amino)pyrimidin-4-yl)amino)-5-(5-methoxypyrimidin-2-yl)phenyl)dimethylphosphine oxide], the figures for the GI50 in experiment [1] and in experiment [2] (setting [3]) were 365 nM and 11.8 nM, respectively. The half-maximal inhibitory concentration (IC50) at IGF1R came out at 120 nM; against EGFR WT, 19 nM; in the experiment with A431 (setting [4]), 1470 nM; at EGFRΔ19del/T790M/C797S it was 0.5 nM.

With `CCc1cc(Nc2ncc(Br)c(Nc3ccc(-c4ncccn4)cc3P(C)(C)=O)n2)c(OC)cc1N1CCC(N2CCN(C)CC2)CC1` [Compound 26, (2-((5-Bromo-2-((5-ethyl-2-methoxy-4-(4-(4-methylpiperazin-1-yl)piperidin-1-yl)phenyl)amino)pyrimidin-4-yl)amino)-5-(pyrimidin-2-yl)phenyl)dimethylphosphine oxide], the GI50 in experiment [1] came to 162 nM; in experiment [2] (setting [3]), 5.1 nM. Also, the 50% inhibitory concentration (IC50) at IGF1R amounted to 102 nM; at EGFR WT it was 18.9 nM; with A431 (setting [4]), 1030 nM; on EGFRΔ19del/T790M/C797S, 0.4 nM.

On to `CCc1cc(Nc2ncc(Br)c(Nc3ccc(-c4ncco4)cc3P(C)(C)=O)n2)c(OC)cc1N1CCC(N2CCN(C)CC2)CC1` [Compound 27], for which the GI50 in experiment [1] worked out at 159 nM; in experiment [2] (setting [3]), 7.5 nM. The IC50 at IGF1R amounted to 72 nM; at EGFR WT, 15.6 nM; in the experiment with A431 (setting [4]) it was 871 nM; against EGFRΔ19del/T790M/C797S, 0.3 nM.

Turning to `CCn1cc(-c2cc(Nc3ncc(Br)c(Nc4ccc(-c5cc(C)n(C)n5)cc4P(C)(C)=O)n3)c(OC)cc2N2CCC(N3CCN(C)CC3)CC2)cn1` [Compound K-005, (2-((5-Bromo-2-((5-(1-ethyl-1H-pyrazol-4-yl)-2-methoxy-4-(4-(4-methylpiperazin-1-yl)piperidin-1-yl)phenyl)amino)pyrimidin-4-yl)amino)-5-(1,5-dimethyl-1H-pyrazol-3-yl)phenyl)dimethylphosphine oxide], the figures for the GI50 in experiment [1] and in experiment [2] (setting [3]) were 482 nM and 27.9 nM, respectively. Further, the IC50 in the experiment on A431 (setting [4]) is 415 nM.

As for `CCc1cc(Nc2ncc(Br)c(Nc3ccc(-c4cnn(C(F)F)n4)cc3P(C)(C)=O)n2)c(OC)cc1N1CCC(N2CCN(C)CC2)CC1` [Compound K-006, (2-((5-Bromo-2-((5-ethyl-2-methoxy-4-(4-(4-methylpiperazin-1-yl)piperidin-1-yl)phenyl)amino)pyrimidin-4-yl)amino)-5-(2-(difluoromethyl)-2H-1,2,3-triazol-4-yl)phenyl)dimethylphosphine oxide], the GI50 in experiment [1] came to 180 nM; in experiment [2] (setting [3]), 11.6 nM. Further, the IC50 in the experiment with A431 (setting [4]) came to 1270 nM.

Consider `COc1cc(N2CCC(N3CCCCC3)CC2)c(-c2cnn(C)c2)cc1Nc1ncc(Br)c(Nc2ccc(-c3ccccc3)c(C)c2P(C)(C)=O)n1` [Compound K-051], for which the GI50 in experiment [1] worked out at 15.8 nM; in experiment [2] (setting [3]), 1.4 nM. Besides, the IC50 with A431 (setting [4]) is 125 nM.

As to `COc1cnn(-c2ccc(Nc3nc(Nc4cc(-c5cnn(C)c5)c(N5CCN(C6CCCC6)CC5)cc4OC)ncc3Br)c(P(C)(C)=O)c2)c1` [Compound K-081], the GI50 in experiment [1] was found to be 52.1 nM; in experiment [2] (setting [3]), 1 nM. The IC50 in the experiment on A431 (setting [4]) came out at 379 nM.

As to `COc1cnn(-c2ccc(Nc3nc(Nc4cc(-c5cnn(C)c5)c(N5CCN(C(C)=O)CC5)cc4OC)ncc3Br)c(P(C)(C)=O)c2)c1` [Compound K-082], the GI50 in experiment [1] worked out at 2960 nM; in experiment [2] (setting [3]), 11.4 nM. In the experiment with A431 (setting [4]), the IC50 was found to be 1260 nM.

As to `COc1cn(-c2ccc(Nc3nc(Nc4cc(-c5cnn(C)c5)c(N5CCN(c6cccnc6)CC5)cc4OC)ncc3Br)c(P(C)(C)=O)c2)cn1` [Compound K-083, (2-((5-Bromo-2-((2-methoxy-5-(1-methyl-1H-pyrazol-4-yl)-4-(4-(pyridin-3-yl)Piperazin-1-yl)phenyl)amino)pyrimidin-4-yl)amino)-5-(4-methoxy-1H-imidazol-1-yl)phenyl)dimethylphosphine oxide], the values for the GI50 in experiment [1] and in experiment [2] (setting [3]) were 113 nM and 1 nM, respectively. In the experiment with A431 (setting [4]), the IC50 worked out at 910 nM.

On to `COc1cc(N2CCC(N3CCN(C)CC3)CC2)ccc1Nc1ncc(Cl)c(Nc2ccc(C)cc2P(C)(C)=O)n1` [compound 1, reference compound], for which the values for the GI50 in experiment [1] and in experiment [2] (setting [3]) were 836 nM and 49.9 nM, respectively. The half-maximal inhibitory concentration (IC50) worked out at 44.1 nM at IGF1R, 60 nM against EGFR WT and 598 nM in the experiment on A431 (setting [4]).
